In patent US6620828B2, “Thiazole compounds and pharmaceutical compositions for inhibiting protein kinases and methods for their use” (Agouron Pharmaceuticals, Inc., priority 1999, dated 2003):

What follows are compounds tested on human umbilical vein endothelial cells (HUVEC) (assay: HUVEC proliferation assay). Settings: Homo sapiens, HUVEC, 10 nM; crude combinatorial urea library; read-out: Inhibition of HUVEC Proliferation % inhibition @ 10 nM.
Type: cell-based
Protocol: HUVEC Proliferation Assay
This assay determines the ability of a test compound to inhibit the growth factor-stimulated proliferation of human umbilical vein endothelial cells (“HUVEC”). HUVEC cells (passage 3-4, Clonetics, Corp.) were thawed into EGM2 culture medium (Clonetics Corp) in T75 flasks. Fresh EGM2 medium was added to the flasks 24 hours later. Four or five days later, cells were exposed to another culture medium (F12K medium supplemented with 10% fetal bovine serum (FBS), 60 μg/ml endothelial cell growth supplement (ECGS), and 0.1 mg/ml heparin). Exponentially-growing HUVEC cells were used in experiments thereafter. Ten to twelve thousand HUVEC cells were plated in 96-well dishes in 100 μl of rich, culture medium (described above). The cells were allowed to attach for 24 hours in this medium. The medium was then removed by aspiration and 105 μl of starvation media (F12K+1% FBS) was added to each well. After 24 hours, 15 μl of test agent dissolved in 1% DMSO in starvation medium or this vehicle alone was added into each treatment well; the final DMSO concentration was 0.1%. One hour later, 30 μl of VEGF (30 ng/ml) in starvation media was added to all wells except those containing untreated controls; the final VEGF concentration was 6 ng/ml. Cellular proliferation was quantified 72 hours later by MTT dye reduction, at which time cells were exposed for 4 hours MTT (Promega Corp.). Dye reduction was stopped by addition of a stop solution (Promega Corp.) and absorbance at 595 λ was determined on a 96-well spectrophotometer plate reader.
IC50 values were calculated by curve-fitting the response of A^595 to various concentrations of the test agent; typically, seven concentrations separated by 0.5 log were employed, with triplicate wells at each concentration. For screening compound library plates, one or two concentrations (one well per concentration) were employed, and the % inhibition was calculated by the following formula:
% inhibition=(control−test) divided by (control−starvation) […]
control=A^595 when VEGF is present without test agent test=A^595 when VEGF is present with test agent starvation=A^595 when VEGF and test agent are both absent.

SMILES	inhibition at 0.01 µM [%]
COc1cccc(C(=O)Nc2cccc(-c3csc(-c4sc(NC(=O)NCCCN(CCO)CCO)nc4N)n3)c2)c1	2
COc1cccc(C(=O)Nc2cccc(-c3csc(-c4sc(NC(=O)NCCCCCCN(C)C)nc4N)n3)c2)c1	32
COc1cccc(C(=O)Nc2cccc(-c3csc(-c4sc(NC(=O)NCCCCN(C)C)nc4N)n3)c2)c1	-2
COc1cccc(C(=O)Nc2cccc(-c3csc(-c4sc(NC(=O)NCCN(C(C)C)C(C)C)nc4N)n3)c2)c1	2
COc1cccc(C(=O)Nc2cccc(-c3csc(-c4sc(NC(=O)NCC(=O)NO)nc4N)n3)c2)c1	-1
CCC(CO)NC(=O)Nc1nc(N)c(-c2nc(-c3cccc(NC(=O)c4cccc(OC)c4)c3)cs2)s1 (centres unmarked)	13
COc1cccc(C(=O)Nc2cccc(-c3csc(-c4sc(NC(=O)NCCN5CCCC5)nc4N)n3)c2)c1	7
COCC(C)NC(=O)Nc1nc(N)c(-c2nc(-c3cccc(NC(=O)c4cccc(OC)c4)c3)cs2)s1 (centres unmarked)	8
COc1cccc(C(=O)Nc2cccc(-c3csc(-c4sc(NC(=O)NCCNc5ccccc5)nc4N)n3)c2)c1	28

Same assay, conditions: Homo sapiens, HUVEC, 50 nM; crude combinatorial urea library; read-out: Inhibition of HUVEC Proliferation % inhibition @ 50 nM

SMILES	inhibition at 0.05 µM [%]
COc1cccc(C(=O)Nc2cccc(-c3csc(-c4sc(NC(=O)NCCCN(CCO)CCO)nc4N)n3)c2)c1	65
COc1cccc(C(=O)Nc2cccc(-c3csc(-c4sc(NC(=O)NCCCCCCN(C)C)nc4N)n3)c2)c1	24
COc1cccc(C(=O)Nc2cccc(-c3csc(-c4sc(NC(=O)NCCCCN(C)C)nc4N)n3)c2)c1	71
COc1cccc(C(=O)Nc2cccc(-c3csc(-c4sc(NC(=O)NCCN(C(C)C)C(C)C)nc4N)n3)c2)c1	22
COc1cccc(C(=O)Nc2cccc(-c3csc(-c4sc(NC(=O)NCC(=O)NO)nc4N)n3)c2)c1	37
CCC(CO)NC(=O)Nc1nc(N)c(-c2nc(-c3cccc(NC(=O)c4cccc(OC)c4)c3)cs2)s1 (centres unmarked)	62
COc1cccc(C(=O)Nc2cccc(-c3csc(-c4sc(NC(=O)NCCN5CCCC5)nc4N)n3)c2)c1	17
COCC(C)NC(=O)Nc1nc(N)c(-c2nc(-c3cccc(NC(=O)c4cccc(OC)c4)c3)cs2)s1 (centres unmarked)	42
COc1cccc(C(=O)Nc2cccc(-c3csc(-c4sc(NC(=O)NCCNc5ccccc5)nc4N)n3)c2)c1	62

Same assay, conditions: Homo sapiens, HUVEC, Inhibition of HUVEC Proliferation; 50 nM; crude combinatorial urea library; read-out: % inhibition @ 50 nM

SMILES	inhibition at 0.05 µM [%]
COc1cccc(C(=O)Nc2cc(-c3csc(-c4sc(NC(=O)NCCN5CCCC5)nc4N)n3)c(F)cc2F)c1 [drawing 703]	93
COc1cccc(C(=O)Nc2cc(-c3csc(-c4sc(NC(=O)NCCN(C)C)nc4N)n3)c(F)cc2F)c1	63
CCN(CCNC(=O)Nc1nc(N)c(-c2nc(-c3cc(NC(=O)c4cccc(OC)c4)c(F)cc3F)cs2)s1)c1cccc(C)c1	18
COc1cccc(C(=O)Nc2cc(-c3csc(-c4sc(NC(=O)NCCS(=O)(=O)O)nc4N)n3)c(F)cc2F)c1	27
COc1cccc(C(=O)Nc2cc(-c3csc(-c4sc(NC(=O)N[C@@H](CO)C(N)=O)nc4N)n3)c(F)cc2F)c1	69
COc1cccc(C(=O)Nc2cc(-c3csc(-c4sc(NC(=O)NCc5ccncc5)nc4N)n3)c(F)cc2F)c1	95
COc1cccc(C(=O)Nc2cc(-c3csc(-c4sc(NC(=O)NCC(C)N(C)C)nc4N)n3)c(F)cc2F)c1 (centres unmarked)	22
CCC(CO)NC(=O)Nc1nc(N)c(-c2nc(-c3cc(NC(=O)c4cccc(OC)c4)c(F)cc3F)cs2)s1 (centres unmarked)	108
COc1cccc(C(=O)Nc2cc(-c3csc(-c4sc(NC(=O)NCCO)nc4N)n3)c(F)cc2F)c1	110

Same assay, conditions: Homo sapiens, HUVEC, Inhibition of HUVEC Proliferation; 50 nM; crude combinatorial urea library; read-out: Inhibition @ 50 nM

SMILES	inhibition at 0.05 µM [%]
COc1cccc(C(=O)Nc2cc(-c3noc(-c4sc(NC(=O)NCCN5CCCCC5)nc4N)n3)c(F)cc2F)c1	78
COc1cccc(C(=O)Nc2cc(-c3noc(-c4sc(NC(=O)NCCC5CCCN5C)nc4N)n3)c(F)cc2F)c1 (centres unmarked)	104
COc1cccc(C(=O)Nc2cc(-c3noc(-c4sc(NC(=O)NC(CO)CO)nc4N)n3)c(F)cc2F)c1	31
COc1cccc(C(=O)Nc2cc(-c3noc(-c4sc(NC(=O)NCC(C)(C)CN(C)C)nc4N)n3)c(F)cc2F)c1	77
COc1cccc(C(=O)Nc2cc(-c3noc(-c4sc(NC(=O)NCC(C)C)nc4N)n3)c(F)cc2F)c1 [drawing 804]	20
COc1cccc(C(=O)Nc2cc(-c3noc(-c4sc(NC(=O)NCCc5cccnc5)nc4N)n3)c(F)cc2F)c1	38
COc1cccc(C(=O)Nc2cc(-c3noc(-c4sc(NC(=O)NCCc5ccccn5)nc4N)n3)c(F)cc2F)c1	78
CNC(=O)Nc1nc(N)c(-c2nc(-c3cc(NC(=O)c4cccc(OC)c4)c(F)cc3F)no2)s1 [drawing 782]	105
